Laboratory results from US20240027453A1, “METHOD FOR DETECTION AND QUANTITATIVE MONITORING OF INFECTIONS WITH HERPESVIRUSES” (The Trustees of Princeton University, priority 2020, published 2024).
Where two headings read alike, the source gives them in different places.

Test system: HCMV
Format: cell-based
Conditions: DE
Description: In example herpesvirus PRM assay methods shown herein, cell pellets were lysed in 2% SDS, 100 mM NaCl, 0.5 mM EDTA, 50 mM Tris, pH 8.2, and 50 μg of protein was reduced and alkylated with 25 mM TCEP and 50 mM CAM respectively for 20 min at 70° C. Proteins were then precipitated via methanol chloroform precipitation (Wessel & Flugg, Anal Biochem. 138(1):141-143, 1984), resuspended in 50 mM HEPES, pH 8.2 and digested overnight with trypsin (50:1 protein:enzyme w/w ratio). Digested peptides were desalted by SDB-RPS StageTip as previously described (Lum et al., Cell Syst., 7(6):[…], 2018; Greco et al., Methods Mol Biol 1410:39-63, 2016; Federspiel & Cristea, Methods Mol Biol., 1977:115-143, 2019).
Peptides (1.0 μg on column) were analyzed by LC-MS/MS using a Dionex Ultimate 3000 UHPLC coupled online to an EASYSpray ion source and a Q Exactive HF. Peptides were separated on an EASYSpray C18 column (75 μm×25 cm) heated to 50° C. using a linear gradient of 5% B to 32% B over 60 min at a flow rate of 250 nL/min and were ionized at 1.7 kv. Mobile phase A consisted of 0.1% FA in H2O and mobile phase B consisted of 0.1% FA, 2.9% H2O in ACN.
The PRM method was controlled by a peptide inclusion list with retention time windows of 6 min for selected precursor ions.
The PRM assay was developed and analyzed using the open-source software Skyline (Maclean et al., Bioinformatics 26(7):966-968, 2010). Summed area under the curve of 3-4 transitions per peptide was used for quantitation. Targeted peptides were normalized to host protein loading control peptides. Peptide values for each sample were scaled to the average of each peptide across all runs. The average of multiple peptides was used as the inferred value for the protein measurement when more than one peptide was quantified (Federspiel et al., PLoS Biol. 17(9):e3000437. Doi: 10.1371/journal.pbio.3000437). PRM quantitation data were graphed using the Python Seaborn and Matplotlib libraries.
MRC5 primary human fibroblasts (HFs) (ATCC CCL-171) were used as the model system for HSV-1 and HCMV infections and were cultured in complete growth medium (DMEM supplemented with 10% fetal bovine serum and 1% penicillin-streptomycin antibiotics) at 37° C. and 5% CO2. iSLK.219 cells harboring latent KSHV (a gift from Dr. Britt Glaunsinger, University of California, Berkeley) were grown in complete growth medium supplemented with 500 μg/ml hygromycin (ThermoFisher Scientific, 10687010) at 37° C. and 5% CO2. All cells were used for experiments within a maximum of 10 passages.
Wild type HSV-1 strain 17+ (a gift from Beate Sodeik, Hannover Medical School, Hannover, Germany) was propagated as previously described (Diner et al., 2015). Briefly, PO stocks were generated by electroporating pBAC-HSV-1 into U-2 OS cells. […] In a similar manner, wild type HCMV strain AD169 was produced from BAC electroporation into HFs and working stocks were propagated by infecting HFs at a low level. In both cases, cell-associated virus was released by sonication, combined with supernatant virus, then concentrated by ultracentrifugation (20,000 rpm, 2 hours, 4° C. with SW28 swinging bucket rotor [Beckman Coulter]) over a 10% ficoll (HSV-1) or 20% sorbitol (HCMV) cushion. Virus stock titers were determined by plaque assay for HSV-1 or tissue culture infectious dose (TCID50) for HCMV and infections were performed at a multiplicity of infection (MOI) of 3.
12 hours prior to virus infection or reactivation, cells were treated with either the small molecule drug or DMSO/PBS control at an equivalent volume. […] For infection cycles lasting longer than 24 hours, small molecule drugs were re-added to the cell culture medium every 24 hours. Upon collection, cells were rinsed with PBS, scraped into a microcentrifuge tube, pelleted by centrifugation, and rinsed again with PBS.

Nc1ccn(C[C@@H](CO)OCP(=O)(O)O)c(=O)n1 [CDV, cidofovir]
UL119/UL118 (P16739) protein, numerical value of heatmap FIG. 6C (timepoint 72): 0.9178
UL128 (P16837) protein, numerical value of heatmap FIG. 6C (timepoint 72): 0.3157
US8 (P09730) protein, numerical value of heatmap FIG. 6C (timepoint 72): 1.064
US9 (P09729) protein, numerical value of heatmap FIG. 6C (timepoint 72): 1.073
US12 (P09721) protein, numerical value of heatmap FIG. 6C (timepoint 72): 1.061
US13 (P09720) protein, numerical value of heatmap FIG. 6C (timepoint 72): 1.062
US14 (P09719) protein, numerical value of heatmap FIG. 6C (timepoint 72): 0.8113
US18 (P69334) protein, numerical value of heatmap FIG. 6C (timepoint 72): 1.076
US22 (P09722) protein, numerical value of heatmap FIG. 6C (timepoint 72): 0.7585
US23 (P09701) protein, numerical value of heatmap FIG. 6C (timepoint 72): 0.7114
US24 (P09700) protein, numerical value of heatmap FIG. 6C (timepoint 72): 0.6653
gB (P06473) protein, numerical value of heatmap FIG. 6C (timepoint 72): 0.7243
sp|P09710|IR01_HCMVA (P09710) protein, numerical value of heatmap FIG. 6C (timepoint 72): 0.4528
CVC2 (P16726) protein, numerical value of heatmap FIG. 6C (timepoint 96): 0.8812
DBP (P17147) protein, numerical value of heatmap FIG. 6C (timepoint 96): 1.215
HELI (P16736) protein, numerical value of heatmap FIG. 6C (timepoint 96): 0.6134
NEC1 (P16794) protein, numerical value of heatmap FIG. 6C (timepoint 96): 0.6641
NEC2 (P16791) protein, numerical value of heatmap FIG. 6C (timepoint 96): 0.9731
RIR1 (P16782) protein, numerical value of heatmap FIG. 6C (timepoint 96): 0.8478
TRM1 (P16724) protein, numerical value of heatmap FIG. 6C (timepoint 96): 0.8347
UL4 (P17146) protein, numerical value of heatmap FIG. 6C (timepoint 96): 1.514
UL26 (P16762) protein, numerical value of heatmap FIG. 6C (timepoint 96): 1.007
UL32 (P08318) protein, numerical value of heatmap FIG. 6C (timepoint 96): 0.8551
UL34 (P16812) protein, numerical value of heatmap FIG. 6C (timepoint 96): 0.6849
UL35 (P16766) protein, numerical value of heatmap FIG. 6C (timepoint 96): 0.6647
UL38 (P16779) protein, numerical value of heatmap FIG. 6C (timepoint 96): 0.8749
UL44 (P16790) protein, numerical value of heatmap FIG. 6C (timepoint 96): 0.9654
UL48 (P16785) protein, numerical value of heatmap FIG. 6C (timepoint 96): 0.7541
UL54 (P08546) protein, numerical value of heatmap FIG. 6C (timepoint 96): 1.256
UL71 (P16823) protein, numerical value of heatmap FIG. 6C (timepoint 96): 1.299
UL78 (P16751) protein, numerical value of heatmap FIG. 6C (timepoint 96): 0.7903
UL84 (P16727) protein, numerical value of heatmap FIG. 6C (timepoint 96): 0.7779
UL95 (P16801) protein, numerical value of heatmap FIG. 6C (timepoint 96): 0.5596
UL96 (P16787) protein, numerical value of heatmap FIG. 6C (timepoint 96): 0.7142
UL97 (P16788) protein, numerical value of heatmap FIG. 6C (timepoint 96): 0.8338
UL98 (P16789) protein, numerical value of heatmap FIG. 6C (timepoint 96): 1.012
UL102 (P16827) protein, numerical value of heatmap FIG. 6C (timepoint 96): 0.9332
UL104 (P16735) protein, numerical value of heatmap FIG. 6C (timepoint 96): 0.5729
UL112/UL113 (P17151) protein, numerical value of heatmap FIG. 6C (timepoint 96): 0.7439
UL114 (P16769) protein, numerical value of heatmap FIG. 6C (timepoint 96): 0.9743
UL119/UL118 (P16739) protein, numerical value of heatmap FIG. 6C (timepoint 96): 0.7206
UL128 (P16837) protein, numerical value of heatmap FIG. 6C (timepoint 96): 0.8111
US8 (P09730) protein, numerical value of heatmap FIG. 6C (timepoint 96): 0.7796
US9 (P09729) protein, numerical value of heatmap FIG. 6C (timepoint 96): 0.9079
US12 (P09721) protein, numerical value of heatmap FIG. 6C (timepoint 96): 0.6688
US13 (P09720) protein, numerical value of heatmap FIG. 6C (timepoint 96): 0.8741
US14 (P09719) protein, numerical value of heatmap FIG. 6C (timepoint 96): 0.6845
US18 (P69334) protein, numerical value of heatmap FIG. 6C (timepoint 96): 1.116
US22 (P09722) protein, numerical value of heatmap FIG. 6C (timepoint 96): 1.105
US23 (P09701) protein, numerical value of heatmap FIG. 6C (timepoint 96): 0.7852
US24 (P09700) protein, numerical value of heatmap FIG. 6C (timepoint 96): 0.7832
